According to patent US9464093B2, “Substituted imidazo[4',5':4,5]cyclopenta[1,2-e]pyrrolo[1,2-a]pyrazines and oxazolo[4',5':4,5]cyclopenta[1,2-e]pyrrolo[1,2-a]pyrazines for treating brain cancer” (Mayo Foundation for Medical Education and Research, priority 2012, dated 2016):
Entries after “also recorded” stand apart in the source; their conditions may differ. Where two headings read alike, the source gives them in different places.

Tests used:
MB-468 = test: Cell proliferation assay MB-468 (Example 6); format: cell-based; conditions: cells counted on the sixth day
Description: In-vitro assays were performed to assess the cytotoxic impact of AA analogues on breast cancer cell lines (MB-468, MB-453, and T47D), lymphoma cell lines (Raji and OCI-LY10), and glioblastoma multiforme cell line (U87). The three breast cancer cell lines represent three subtypes of breast cancer: triple-negative (MB-468), Her2-positive (MB-453), and hormone receptor positive (T47D).
The IC50 values obtained for each compound represents the concentration of the tested compound that is needed to decrease the cancer cell count by 50%. Cancer cells were seeded in triplicate at 50,000 cells per well of a 24-well plate in 0.5 ml medium. […] Cells were harvested and counted on the sixth day using a Beckman Coulter counter.

[1] = tested on: OCI-LY10 B lymphoma cells; test: OCI-LY10 orthotopic murine CNS lymphoma model; format: in vivo; conditions: for Median Survival (Day) CNS Lymphoma (OCI-LY10): control 35; for survival (Kaplan-Meier) vs control, OCI-LY10 model / tumor growth (BLI) vs control, OCI-LY10 model: all treatment groups (2.5 or 5 mg/kg i.p. daily for 4 days); for tolerability, OCI-LY10 model: both dose levels (2.5 and 5 mg/kg)
Description: Female athymic mice (8-10 weeks old and weighing 20-25 g at the beginning of the study) were purchased from Harlan laboratories (Indianapolis, Ind.). They were housed in a temperature-controlled sterilized room (23±2° C.) with a 12-h light/dark cycle and free access to food and water throughout the study.
Murine brain tumor models were created by intracerebral injection of luciferase-transfected cancer cells in athymic mice under anesthesia using a stereotactic platform. For murine model for CNS lymphoma, 1×10^5 OCI-LY10 B lymphoma cells were used. For murine model for metastatic breast cancer of the brain (MBCB), 1×10^5 MB-468 triple-negative breast cancer cells were used. For murine model for glioblastoma multiforme (GBM), 1.75×10^5 U87 cells were used. Eight-week-old athymic mice underwent a minimum 7-day acclimation/quarantine prior to surgery. Surgery was performed in a laminar flow hood under sterile conditions. Tylenol 300 mg/kg PO was given for analgesia 48 hours before the surgery and continuing 48 hours postoperatively. Anesthesia was achieved by inhalation of 1-2% isoflurane. After the mouse became well anesthetized, it was placed in the Kopf stereotactic instrument. A small amount of BNP antibiotic cream (a mixture of Bacitracin, Neomycin and Polymyxin) was smeared on its eyes to prevent infection and corneal damage during surgery. A strip of soft fabric was placed over the mouse's body and tail to prevent excessive heat loss during surgery. The scalp area was cleaned with a 2% solution of Betadine and dried with cotton tipped applicator. A midline sagittal incision was made in the scalp. A small burr hole was drilled in the left skull with a surgical drill (Kopf) or a Dremel drill according to the coordinates (AP: 0.5 mm, LM: 2.5 mm) as determined by reference to the mouse brain atlas by Franklin and Paxinos. The dura mater was surgically exposed, and a 10 μl Hamilton syringe with a 26S-gauge beveled needle was lowered into the left cerebral hemisphere up to a depth of 3 mm and 5 μl of tumor cells were slowly infused (0.5 μl/min). The needle was left in place for 5 minutes to prevent reflux and then was slowly removed. The skin was closed with wound clips. The mice recovered from anesthesia and surgery in a warm environment and were not returned to their cages until motor activity returned. Cages were placed on top of a heating pad to minimize the loss of body heat during the recovery. The mice were monitored post-operatively at least twice a day for 5 days or until recovery was complete.
BLI was used to assess the impact of the treatments on the brain tumor growth. After intracerebral injection of cancer cells, all the mice were subjected to bioluminesence imaging (BLI) twice a week starting at day-4 post-intracerebral injection to monitor the real-time in vivo tumor growth. BLI was conducted using a Xenogen Lumina optical imaging system (Caliper Life Sciences, Hopkinton, Mass.). Mice were anesthetized with isofluorane before intraperitoneal injections of luciferin at a dose of 150 mg/kg, providing a saturating substrate concentration for luciferase enzyme. Peak luminescent signals were recorded 10 minutes after luciferin injection. Regions of interest encompassing the intracranial area of signal were defined using Living Image software (Xenogen, Alameda, Calif.), and the total photons/s/steradian/cm2 was recorded.
Five mice each were assigned to one of seven treatment groups or one vehicle control group for all three brain tumor models. Mice in experimental groups received either 2.5 mg/kg or 5 mg/kg of AA, CEAA, or DCEAA by intraperitoneal route daily for 4 days. For CAA, only 2.5 mg/Kg by intraperitoneal route daily for 4 days was used. The control group received DMSO by intraperitoneal route for 4 days. The end point for the survival analysis was the development of limb paralysis. Animals were checked at least twice per day. Animals that reached the end point were sacrificed by CO2 anesthesia. […]

[2] = tested on: DU145 prostate cancer cells; test: Cytotoxicity, MTT method, DU145; conditions: read-out: Cytotoxicity (IC50, μM) DU145
Description: The cell suspension in the culture medium was plated into each well of 96-well plates (10,000 cells/well/100 μL). After 24 h, testing compounds were added, and then the plates were incubated for an additional 24 h in a humidified atmosphere of 5% CO2 at 37° C. […] The IC50 value was determined by linear interpolation from the growth inhibition curve.

[3] = tested on: MB-468 (triple-negative breast cancer cells); test: Cytotoxicity, cell count, MB-468 (Example 4); conditions: read-out: Cytotoxicity (IC50, μM) MB-468
Description: Raji cells and MB-468 cells were purchased from American Tissue Culture (Manassas, Va.). […] Cells were harvested and counted on the third day in a Coulter Particle Counter (Beckman-Coulter Corp.: Brea, Calif.). IC50 values were calculated using GraphPad Prism 5 (GraphPad Software Inc., La Jolla, Calif.).

[4] = 2.5 mg/kg intraperitoneal daily for 4 days
[5] = 5 mg/kg intraperitoneal daily for 4 days

Structure (SMILES)	IC50 (MB-468)	Median Survival (Day) CNS Lymphoma (OCI-LY10) [1, 4]	Median Survival (Day) CNS Lymphoma (OCI-LY10) [1, 5]	survival (Kaplan-Meier) vs control, OCI-LY10 model [1]	tumor growth (BLI) vs control, OCI-LY10 model [1]	tolerability, OCI-LY10 model [1]	IC50 ([2]; Homo sapiens, DU-145, 24 h)	IC50 [3]	weight loss, OCI-LY10 model ([1]; 2.5 mg/kg)	weight loss, OCI-LY10 model ([1]; 5 mg/kg dose level)	IC50 ([2]; MTT, 24 h incubation)	IC50 ([3]; cells counted on the third day)
CCN1C(=O)N[C@H]2[C@@H]3NC(=O)c4ccc(Cl)n4[C@@H]3C[C@]21O [CEAA, chloroethylagelastatin A]	277 nM	57 days	65 days	significantly prolonged survival; also recorded: prolongation of survival	significantly decreased tumor growth; also recorded: significantly slower	well tolerated	2.6 µM	0.28 µM	–	–	–	–
CN1C(=O)N[C@H]2[C@@H]3NC(=O)c4ccc(Cl)n4[C@@H]3C[C@]21O [CAA, chloroagelastatin A]	81.1 nM	49 days	–	significantly prolonged survival; also recorded: prolongation of survival	significantly decreased tumor growth; also recorded: significantly slower	–	1.2 µM	0.08 µM	Some weight loss	–	–	–
CCN1C(=O)N[C@H]2[C@@H]3NC(=O)c4cc(Cl)c(Cl)n4[C@@H]3C[C@]21O [DCEAA, dichloroethylagelastatin A]	444 nM	60 days	69 days	significantly prolonged survival; also recorded: prolongation of survival	significantly decreased tumor growth; also recorded: significantly slower	well tolerated	1.4 µM	0.44 µM	–	–	–	–
CN1C(=O)N[C@H]2[C@@H]3NC(=O)c4ccc(Br)n4[C@@H]3C[C@]21O [AA, agelastatin A, reference compound]	2800 nM	48.5 days	46 days	significantly prolonged survival; also recorded: prolongation of survival	significantly decreased tumor growth; also recorded: significantly slower	–	–	–	–	Some weight loss	2.3 µM	2.8 µM
